“Also recorded” adds a separate entry of the source.

For data set [1], the system named is F-actin in SKOV3 cells expressing LifeAct-GFP. Put plainly: Live cell confocal imaging of LifeAct-GFP reporter (F-actin disruption). It is filed as cell-based. The note with it: 0-2 hours. Here is the method: To visualize effects of analogs on cellular F-actin dynamics, several cancer cell lines were transduced with a lentivirus expressing a green fluorescent protein (GFP) fusion with LifeAct, a 17 amino-acid protein containing the actin-binding domain of a yeast protein. To produce this lentivirus, 500,000 HEK293T cells were seeded on a 6-well plate coated with 0.01 mg/ml of poly-lysine solution. 24 hours later viral packing plasmids Pax2 (1 ug) and MD2G (0.5 ug) were mixed in serum free media with 1 ug of pLenti.PGK.LifeAct-GFP.W (Addgene Catalogue No. 51010), and 10 uL of Xtreme-Gene (Roche, Germany) were then added to the master mix. The mix was vortexed and incubated at room temperature for 15 minutes before being added in a drop-wise manner to HEK293T cells. After 24 hours, HCC1954, SKBR3 or SKOV3 cells were seeded in a 6-well plate and incubated at 37° C. for 24 hours. The virus-containing media from the HEK293T cells media was collected and filtered (0.45 μm). HCC1954, SKBR3 or SKOV3 cells were incubated with 0.5 mL virus-containing media, and incubated at 37° C. for 2-3 days. Efficiency of transduction was determined by visualizing GFP positive cells using fluorescence microscopy. […]
Disruption of filamentous actin (F-actin) in HER2 cancer cells was measured using live cell confocal imaging of LifeAct-GFP reporter. […]

In a further data set the test system is SKOV3 (ovarian) cells. Put plainly: IncuCyte PI uptake assay of cytotoxicity. It is filed as cell-based. The conditions noted are these: 48 hours of treatment, compared to DMSO control. Here is the method: The cytotoxicity of analogs was determined by using a PI uptake assay. HCC1954, SKBR3 or SKOV3 cells (2,000) were seeded in a 96-well plate. Treatments were prepared in 2% FBS containing media with 1 μM PI, and imaged using the IncuCyte Zoom Live Cell Analysis System equipped with a 10× objective. Phase contrast and fluorescent images were acquired every 2-3 hours for 48 hours. Several parameters are available upon analysis utilizing the IncuCyte Zoom Analysis tools including number of PI positive cells and cell confluence. See FIG. 8 for plots of SKOV3 cell analog cytotoxicity and HCC1954 cell analog cytotoxicity for specified treatments.
Cytotoxicity effects of Myc B and analogs in HER2 cancer cells was studied. Specifically, SKOV3 (ovarian) and HCC1954 (breast) cells were incubated with DMSO (1%) or analog (12.5-50 μM) in DMEM supplemented with 2% FBS and PI (1 μM) using an IncuCyte Zoom Live Cell Analysis System for 48 hours. As shown in FIGS. 10A-Q, graphs depict the number of PI positive for SKOV3 cells (left) and HCC1954 cells (right) over 48 hours of treatment with DMSO or indicated analog (12.5-50 μM).

For data set [2], the system named is HER2 cancer cells SKOV3 (ovarian) and HCC1954 (breast). Briefly: Growth suppression of HER2 cancer cells (cell confluence change, live cell imaging). The note with it: analogs 25 μM, Lapatinib 25 μM as comparator. It is filed as cell-based. Here is the method:
Growth suppression of HER2 cancer cells by select Myc B analogs was studied to determine rate of growth of HER2 cancer cells (SKOV3 (ovarian) and HCC1954 (breast)) as measured using a live cell imaging system. Findings are shown in FIGS. 9A and 9B, SKOV3 Ovarian cancer and HCC1954 Breast cancer cells were incubated with DMSO (1%), Myc B (25 nM), or the indicated analogs (25 μM), or with HER2 inhibitor Lapatinib (25 μM) in DMEM supplemented with 2% FBS and PI (1 μM) using an IncuCyte Zoom Live Cell Analysis System for 48 hours. Graphs depict the percent change in confluence at 48 hours compared to time zero (significant differences from DMSO *p<0.05, **p<0.01, ***p<0.001).

The subject of the next data set is F-actin in SKOV3 cells. Put plainly: F-actin staining (TRITC-Phalloidin) fluorescence micrographs. It is filed as cell-based. The conditions noted are these: 2 or 20 hours. Here is the method: Referring to FIG. 12, representative fluorescence micrographs are shown of SKOV3 cells treated with DMSO (1%), Myc B (25 nM), or indicated analog (10 μM) for 2 or 20 hours prior to staining of F-actin (TRITC-Phalloidin). the effects of Myc B analog treatments over 20 hours are compared with DMSO and Myc B in HER2 cancer cells. […] As described in Example 37, disruption of filamentous actin (F-actin) in HER2 cancer cells was measured using live cell confocal imaging of LifeAct-GFP reporter. The LifeAct-GFP signal in DMSO control conditions indicates the localization of F-actin structures in SKOV3 cells. […] Compounds described herein can be used to treat such actin-related problems because of their efficacy in disrupting actin, as shown by studies described in the Examples and Figures herein.

Data set [3] has as its system HER2+ SKOV3 subcutaneous tumor xenograft. Put plainly: SKOV3 subcutaneous tumor xenograft study. The data set is classed as in vivo, Rag2−/−:IL2Rγc−/− mice. Here is the method:
Referring to FIGS. 3A and 3B, a proof-of-principle study of the anticancer effects of MycB in a SKOV3 tumor xenograft model. […] Following the detection of palpable tumors, mice were randomized between vehicle control (DMSO), MycB (100 ng, intratumoral), TZ (50 μg, intraperitoneal), or both MycB and TZ (same doses/delivery) twice weekly until endpoint was reached (n=6/group; significant differences between treatment groups based on ANOVA are indicated by *P<0.05, **** P<0.0001).
The anti-tumor effects of MycB analogs are also expected to extend to other cancer types with selection of appropriate antibodies for these tumor types with novel ADC formulations.

Data set [4] has as its system HER2+ cell migration and invasion (SKOV3 cells). Put plainly: Cell migration and invasion assays (IncuCyte scratch wound, spheroid reattachment). It is filed as cell-based. The conditions noted are these: sub-lethal doses (low nM). On the procedure: Effects of analogs on cellular motility including invasion and migration were evaluated using the IncuCyte Live Cell System. 25,000 SKOV3 cells were plated on a 96-well ImageLock coated with 10 μg/ml of human fibronectin. Once the cells reached approximately 90% confluence a scratch/wound is induced using the IncuCyte Woundmaker (a 96-pin would making tool). The cells were then rinsed with sterile PBS then media, with or without treatment was added. To evaluate invasion 5% Matrigel was added. The plate was then inserted into the IncuCyte Zoom Live Cell Analysis System and imaged at 10× magnification every 2-3 hours following until wound closure or 48 hours.
The percentage of wound confluence, for migration, or would density, for invasion, was determined through the IncuCyte ZOOM Scratch Wound Analysis tool adjusted to cell line dependent processing definitions. See FIGS. 5 to 6 for images and graphical results.
A three-dimensional (3D) spheroid reattachment assay was performed to further evaluate analog effects on migration and invasion. A round bottom 96-well was coated with polyhydroxyehylmethacrylate (poly-hema) to create a non-adhesive conditions upon which cancer cells can form a 3D spheroid. […]
The percentage of migration/invasion was calculated using ImageJ (NIH) by measuring the area of migration or invasion and subtracting the intial size of the spheroid. […]

Data set [5] concerns SKBR3, MDA-MB-453 and SKOV3 cells. Put plainly: Cell viability, Trypan blue exclusion assay. The data set is classed as cell-based. The note with it: multiple cancer cell lines. Here is the method: Referring to FIG. 1A-C, the cytotoxicity of MycB on HER2+ breast and ovarian cancer cells was measured. Specifically, data is provided regarding the percentage of viable cells following treatment with MycB at 0-200 nM concentrations for 48 hours using SKBR3, MDA-MB-453 and SKOV3 cells. Cell viability was determined using Trypan blue exclusion assay (both unstained and stained cells were counted on a hemocytometer; values are mean±SEM of triplicate experiments).

Take `CCCO[C@H](CC)C[C@H](OC)[C@@H](C)CC[C@@H](OC(=O)C(C)C)[C@H](C)[C@H](OC)[C@H](C)/C=C/N(C)C=O` [4f]: the “F-actin structures (LifeAct-GFP signal)” value in data set [1] (analogs 10 μM) is on record as “limited effects at early time points”. For the same compound, the “Cytotoxicity: number of PI positive cells (PI uptake)” value in the data set with SKOV3 (ovarian) cells is on record as “significant cytoxicity response”. Moreover, the “Growth suppression: percent change in confluence at 48 hours compared to time zero” value in data set [2] is “potent analog was seen in 4f (2534), with comparable effects of the HER2 inhibitor Lapatinib”.
On to `CCC(=O)O[C@H](CC)C[C@H](OC)[C@@H](C)CC[C@@H](OC(=O)C(C)C)[C@H](C)[C@H](OC)[C@H](C)/C=C/N(C)C=O` [4g], for which, in the data set with F-actin in SKOV3 cells (analogs 10 μM), the “Localization of endogenous F-actin (TRITC-Phalloidin)” value (“Localization of endogenous F-actin” for short) was “most highly disruptive of F-actin”.
With `CCC(=O)O[C@H](CC)C[C@H](OC)[C@@H](C)CC[C@@H](OC(=O)[C@@H](C)OC)[C@H](C)[C@H](OC)[C@H](C)/C=C/N(C)C=O` [4h], the “Localization of endogenous F-actin” value in the data set on F-actin in SKOV3 cells (analogs 10 μM) is reported as “most highly disruptive of F-actin”.
As for `COC[C@@H](OC)C(=O)O[C@H](CC[C@H](C)[C@@H](C[C@@H]1OC(=O)C[C@@H](O)C/C=C/C(=O)[C@H](C)[C@H](OC)c2coc(n2)-c2coc(n2)-c2coc(n2)/C=C/C[C@H](OC)[C@H]1C)OC)[C@H](C)[C@H](OC(C)=O)[C@H](C)/C=C/N(C)C=O` [MycB, Mycalolide B], in the data set with F-actin in SKOV3 cells (Myc B 25 nM), the “Localization of endogenous F-actin” value was “disruption of F-actin at the cell periphery and collapse into large aggregates in the cytoplasm of the cells”. Further, the “F-actin structures (LifeAct-GFP signal)” value in data set [1] (Myc B 25 nM) is on record as “time-dependent collapse of F-actin into large aggregates near the cell periphery”. Further, the “Growth of SKOV3 tumors (tumor volume and mass)” value in data set [3] (MycB 100 ng intratumoral in combination with TZ 50 μg intraperitoneal, twice weekly) was “reduced growth of SKOV3 tumors; also recorded: potential improvement when combined with TZ (Herceptin) on limiting tumor growth and metastasis”; in data set [3] (MycB alone, 100 ng intratumoral twice weekly), “reduced growth of SKOV3 tumors; also recorded: anti-tumor effects of MycB on tumor volume and mass were demonstrated”. In data set [4], the “Inhibition of cell motility and invasiveness” value is “significant inhibition of cell motility and invasiveness”. Moreover, in the data set on SKOV3 (ovarian) cells, the “Cytotoxicity: number of PI positive cells (PI uptake)” value was “significant increase in PI uptake”. Besides, the “Cytotoxicity in cancer cell lines” value in data set [5] is “cytotoxicity in multiple cancer cell lines”.

The record behind these values is patent US11369594B2, “Cytotoxic actin-targeting compounds” (priority 2017, dated 2022).
